US20080269343A1, “GALENIC FORMULATIONS OF ORGANIC COMPOUNDS” (priority 2004, published 2008)
Read-outs that look alike come from different tables or passages of the source.

Test: Single-dose four-period crossover pharmacokinetic study of 75, 150, 300 and 600 mg aliskiren (dosage form 3) in healthy volunteers (Example 3)
Type: in vivo
Settings: human, plasma; for Cmax / AUC(0-t) / AUC(0-inf): arithmetic mean (SD); for AUC(0-t): read-out: AUC0-96; for Tmax: median, dosage form 3, healthy subjects n = 30, fasted
Procedure: An open-label, single-dose, four-period, four-treatment, randomized crossover study with a 7-day washout between each period to compare the plasma concentrations of 75, 150, 300 and 600 mg of aliskiren (dosage form 3) in healthy volunteers was carried out. A total of 32 healthy subjects enrolled and 30 completed all study procedures and treatments. Subjects were screened during a 21-Day period and, if eligible, proceeded to a baseline visit prior to each treatment (four baseline evaluations in total). There was an end of study evaluation prior to discharge from the study site. Subjects were randomized into 4 dosing sequence groups with 8 subjects per sequence. The subjects were admitted to the study center at least 12 hours prior to the initial dosing in each period for baseline evaluations, and were confined to the clinic for at least 48 h post-dose in each period. Following an inter-dose interval of at least 7 days, each subject returned to the study site to receive the alternate treatment as per their randomization schedule. All subjects received each of the 75, 150, 300 and 600 mg treatments once during the study according to a randomization schedule. Plasma samples for determination of aliskiren were obtained over 96 hour period after the dose in each treatment segment. For all treatment periods, subjects fasted for a minimum of 10 hours pre-dose to 4 hours post-dose. Subjects were considered to have completed the study when all safety and pharmacokinetic evaluations had been completed.
Blood samples were collected to determine the pharmacokinetics following a single oral dose of 75, 150, 300 or 600 mg of aliskiren. Plasma concentrations of aliskiren were used to determine the pharmacokinetic parameters using non-compartmental methods, and the data are summarized in FIGS. 1, 2, and 3, and Table 1.

[1] = single oral dose 75 mg, healthy subjects n = 30
[2] = single oral dose 150 mg, healthy subjects n = 30
[3] = single oral dose 300 mg, healthy subjects n = 30
[4] = single oral dose 600 mg, healthy subjects n = 30

SMILES: COCCCOc1cc(C[C@@H](C[C@H](N)[C@@H](O)C[C@H](C(=O)NCC(C)(C)C(N)=O)C(C)C)C(C)C)ccc1OC [aliskiren, 2(S),4(S),5(S),7(S)—N-(3-amino-2,2-dimethyl-3-oxopropyl)-2,7-di(1-methylethyl)-4-hydroxy-5-amino-8-[4-methoxy-3-(3-methoxy-propoxy)phenyl]-octanamide]
- Cmax [1]: 26 ng/mL
- AUC(0-t) [1]: 266 ng·h/mL
- AUC(0-inf) (single oral dose 75 mg, healthy subjects, n = 23): 356 ng·h/mL
- Cmax [2]: 72 ng/mL
- AUC(0-t) [2]: 530 ng·h/mL
- AUC(0-inf) (single oral dose 150 mg, healthy subjects, n = 29): 627 ng·h/mL
- AUC(0-inf) [3]: 1620 ng·h/mL
- Cmax [3]: 202 ng/mL
- AUC(0-t) [3]: 1480 ng·h/mL
- AUC(0-inf) [4]: 3520 ng·h/mL
- Cmax [4]: 420 ng/mL
- AUC(0-t) [4]: 3240 ng·h/mL
- Tmax (single oral dose 75 mg): 1 h
- Tmax (single oral dose 150 mg): 2.5 h
- Tmax (single oral dose 300 mg): 3 h
- Tmax (single oral dose 600 mg): 2 h
